Where “and” joins values, the source holds several entries; their conditions need not be identical. Equal entries are not always repeated.
How the values were obtained:
[1] = Analysis of metabolites in blood and urine through NP-TLC; assay type: in vivo, FVB/N mice; conditions: NP-TLC EA/EtOH = 5/1
Description: Blood samples were obtained by heart puncture, and then centrifuged at 13,000 rpm for 10 min. Then, the supernatant (about 300 μL) was placed in a 1.5 mL centrifuge tube containing equal amount of ethanol, and then centrifuged again to obtain the serum.

NG4TL4 cells = experiment: Cellular uptake test (ratio of cell to medium); assay type: cell-based; conditions: 1, 2, 4 and 8 h
Description: (§1) 2×10^6 cells was inoculated in a 15 cm^2 dish containing 14 mL medium supplemented with 10% FBS. […] At specified time points (using I-131 tracer at 1, 2, 4 and 8_h), the cells on the dish was harvested by using a cell scraper. Then, a cell suspension was transferred to a 15 mL centrifuge tube and centrifuged (at 3500 rpm) for 2 min. After centrifugation, 100 μL centrifugate was collected to a preweighed counting tube and directly poured into a maintained medium. Cell pellets were frozen with dry ice, and further collected into another weighed counting tube. […] Accumulation of activity of radioactive trancer in cell in vitro is represented by a radio of cell to medium:
(§2) Uptake experimental results of the two radioactive nucleoside analogues [^131I]IUdR and [^131I]ICdR in cells are as shown in FIGS. 4((a), (b)).

LL/2 cells = experiment: Cellular uptake test (ratio of cell to medium); assay type: cell-based; conditions: 1, 2, 4 and 8 h
Description: as §1, §2

NG4TL4 sarcoma cells = experiment: Study on incorporation in DNA; assay type: cell-based; conditions: 1 μCi/mL medium, 0.5-8 h
Description: DNA was extracted with Genomic DNA Mini Kit (Geneaid Biotech Ltd., Taiwan). NG4TL4 cell lines were harvested and inoculated into a petri dish at 2×10^6. […] At 0.5, 1, 2, 4 and 8 h after incubation, the medium was removed, and the cells was washed two times with ice-cold PBS, and then sheared with trypsin and collected to a centrifuge tube for centrifugation (at […] for 1 min). The supernatant was removed, while 50 μL remaining buffer was left to keep the cells in suspension. 300 μL cell lysis buffer was added to the sample and uniformly mixed, the cells was cultured in a water bath at 60° C. for a sereral minutes till the solution was transparent (the sample was inversed once every 3 min). 2 μL RNAse (25 mg/mL) was added to the sample and uniformly mixed, after 5-min incubation at room temperature, 100 μL protein removal buffer was added to the sample, uniformly mixed immediately, and centrifuged for 3 min at full speed (14000 rpm) after 5-min incubation on ice. The resulting solution was transferred as a suspension to another tube, and isopropanol was added and thoroughly mixed. […] In the test, DNA purity was determined at absorption wavelengths of 260 nm and 280 nm, and the ratio of absorbances (OD260/OD280) was about 1.7.

NG4TL4-WT tumor = experiment: Biodistribution study in tumor-bearing mice; assay type: in vivo, FVB/N mice; conditions: for Biodistribution Blood / Biodistribution Bone / Biodistribution Brain / Biodistribution Heart / Biodistribution Kidney / Biodistribution Large Intestine / Biodistribution Liver / Biodistribution Lung / Biodistribution Marrow / Biodistribution Muscle / Biodistribution Pancreas / Biodistribution Small Intestine / Biodistribution Spleen / Biodistribution Stomach / Biodistribution Tumor / T/B (aggregation ratio of tumor to blood) / T/M (tumor-muscle aggregation ratio): 80~90 μCi tail vein, FVB/N mice with NG4TL4-WT tumor
Text: […] Tumor and 13 other tissures (blood, heart, lung, liver, stomach, small intestine, large intestine, spleen, pancreas, kidney, bone, marrow, and muscle) were removed, rinsed, weighed, and determined for radioactivity with a γ scintilation counter. Uptake of the radioactive trancers in the tissues (counts per min) was calibrated against decay, normalizedto sample weight, and expressed as percentages of injected dosage per gram of tissue (% ID/g) and aggregation ratio of tumor to blood.

[2] = mouse, in vivo, iv
[3] = 0.25 h after ^131I-ICdR at tail vein
[4] = 1 h after ^131I-ICdR at tail vein
[5] = 2 h after ^131I-ICdR at tail vein

## Nc1nc(=O)n([C@H]2C[C@H](O)[C@@H](CO)O2)cc1[131I] [^131I-ICdR]
[1]; [3]
  ^131I-ICdR (%) in Blood: 63.10 ± 1.17%
  ^131I-ICdR (%) in Urine: 56.49 ± 6.58%
  ^131I-IUdR (%) in Blood: 18.62 ± 2.25%
  ^131I-IUdR (%) in Urine: 3.19 ± 1.03%
  ^131I-I^- (%) in Blood: 18.28 ± 3.39%
  ^131I-I^- (%) in Urine: 40.32 ± 6.18%
  ^131I-compound (unknown) (%) in Blood: 0%
  ^131I-compound (unknown) (%) in Urine: 0%
[1]; [4]
  ^131I-ICdR (%) in Blood: 72.2% and 72.16 ± 3.66%
  ^131I-ICdR (%) in Urine: 71.0% and 71 + 0.26%
  ^131I-IUdR (%) in Blood: 0%
  ^131I-IUdR (%) in Urine: 0%
  ^131I-I^- (%) in Blood: 14.11 ± 6.15%
  ^131I-I^- (%) in Urine: 26.54 ± 0.34%
  ^131I-compound (unknown) (%) in Blood: 13.73 ± 1.38%
  ^131I-compound (unknown) (%) in Urine: 2.46 ± 0.08%
[1]; [5]
  ^131I-ICdR (%) in Blood: 67.77 ± 7.33%
  ^131I-ICdR (%) in Urine: 81.1 ± 8.86%
  ^131I-IUdR (%) in Blood: 0%
  ^131I-IUdR (%) in Urine: 0%
  ^131I-I^- (%) in Blood: 19 + 5.90%
  ^131I-I^- (%) in Urine: 15.37 ± 7.67%
  ^131I-compound (unknown) (%) in Blood: 13.23 ± 1.97%
  ^131I-compound (unknown) (%) in Urine: 3.53 ± 1.96%
NG4TL4 cells
  uptake value over time: continuously increased with time
LL/2 cells
  uptake value over time: continuously increased with time
NG4TL4 sarcoma cells
  incorporation into cells / radioactive accumulation in DNA with time: linearly incorporated
NG4TL4-WT tumor; 1 h
  Biodistribution Blood: 6.21 ± 1.11 % ID/g
  Biodistribution Bone: 0.96 ± 0.13 % ID/g
  Biodistribution Brain: 0.25 ± 0.03 % ID/g
  Biodistribution Heart: 1.45 + 0.14 % ID/g
  Biodistribution Kidney: 3.96 ± 0.39 % ID/g
  Biodistribution Large Intestine: 2.92 ± 0.18 % ID/g
  Biodistribution Liver: 2.05 ± 0.20 % ID/g
  Biodistribution Lung: 3.52 ± 0.48 % ID/g
  Biodistribution Marrow: 3.29 ± 0.08 % ID/g
  Biodistribution Muscle: 0.85 ± 0.04 % ID/g
  Biodistribution Pancreas: 2.81 ± 0.42 % ID/g
  Biodistribution Small Intestine: 4.79 ± 0.41 % ID/g
  Biodistribution Spleen: 4.03 ± 0.55 % ID/g
  Biodistribution Stomach: 17.07 + % ID/g
  Biodistribution Tumor: 3.46 ± 0.07 % ID/g
  T/B (aggregation ratio of tumor to blood): 0.56
  T/M (tumor-muscle aggregation ratio): 4.07
NG4TL4-WT tumor; 2 h
  Biodistribution Blood: 3.76 ± 0.13 % ID/g
  Biodistribution Bone: 0.71 ± 0.19 % ID/g
  Biodistribution Brain: 0.15 ± 0.03 % ID/g
  Biodistribution Heart: 1.14 + 0.01 % ID/g
  Biodistribution Kidney: 2.36 ± 0.06 % ID/g
  Biodistribution Large Intestine: 2.54 ± 0.33 % ID/g
  Biodistribution Liver: 1.43 ± 0.09 % ID/g
  Biodistribution Lung: 2.72 ± 0.17 % ID/g
  Biodistribution Marrow: 3.58 ± 1.12 % ID/g
  Biodistribution Muscle: 0.61 ± 0.05 % ID/g
  Biodistribution Pancreas: 2.08 ± 0.08 % ID/g
  Biodistribution Small Intestine: 4.79 ± 0.45 % ID/g
  Biodistribution Spleen: 3.07 ± 0.09 % ID/g
  Biodistribution Stomach: 14.99 ± 4.04 % ID/g
  Biodistribution Tumor: 3.78 ± 0.07 % ID/g
  T/B (aggregation ratio of tumor to blood): 1.00
  T/M (tumor-muscle aggregation ratio): 6.16
NG4TL4-WT tumor; 4 h
  Biodistribution Blood: 3.40 ± 0.15 % ID/g
  Biodistribution Bone: 0.77 ± 0.07 % ID/g
  Biodistribution Brain: 0.12 ± 0.02 % ID/g
  Biodistribution Heart: 0.84 + 0.07 % ID/g
  Biodistribution Kidney: 2.07 ± 0.10 % ID/g
  Biodistribution Large Intestine: 2.88 ± 0.21 % ID/g
  Biodistribution Liver: 0.85 ± 0.01 % ID/g
  Biodistribution Lung: 2.28 ± 0.12 % ID/g
  Biodistribution Marrow: 3.82 ± 0.54 % ID/g
  Biodistribution Muscle: 0.51 ± 0.04 % ID/g
  Biodistribution Pancreas: 2.09 ± 0.13 % ID/g
  Biodistribution Small Intestine: 5.27 ± 0.39 % ID/g
  Biodistribution Spleen: 2.88 ± 0.13 % ID/g
  Biodistribution Stomach: 17.68 ± 0.74 % ID/g
  Biodistribution Tumor: 4.85 ± 0.17 % ID/g
  T/B (aggregation ratio of tumor to blood): 1.43
  T/M (tumor-muscle aggregation ratio): 9.59
NG4TL4-WT tumor; 8 h
  Biodistribution Blood: 0.77 ± 0.10 % ID/g
  Biodistribution Bone: 0.11 ± 0.02 % ID/g
  Biodistribution Brain: 0.01 ± 0.00 % ID/g
  Biodistribution Heart: 0.19 + 0.03 % ID/g
  Biodistribution Kidney: 0.75 ± 0.02 % ID/g
  Biodistribution Large Intestine: 1.33 ± 0.06 % ID/g
  Biodistribution Liver: 0.38 ± 0.02 % ID/g
  Biodistribution Lung: 0.69 ± 0.16 % ID/g
  Biodistribution Marrow: 2.31 ± 0.10 % ID/g
  Biodistribution Muscle: 0.09 ± 0.01 % ID/g
  Biodistribution Pancreas: 0.38 ± 0.05 % ID/g
  Biodistribution Small Intestine: 2.06 ± 0.13 % ID/g
  Biodistribution Spleen: 2.77 ± 0.09 % ID/g
  Biodistribution Stomach: 2.85 ± 0.61 % ID/g
  Biodistribution Tumor: 2.32 ± 0.27 % ID/g
  T/B (aggregation ratio of tumor to blood): 3.02
  T/M (tumor-muscle aggregation ratio): 25.77
NG4TL4-WT tumor; mice
  excretion of drug and metabolites: mainly through the urinary system
NG4TL4-WT tumor; tumor-bearing mice
  accumulation in organs (biodistribution and imaging): obviously accumulated in organs that rapidly proliferates
[2]
  CL (total body clearance): 3.90 ± 0.59 mL/h

Reference: US20140221639A1, “RADIOLABELED NUCLEOSIDE ANALOGUE, AND PREPARATION METHOD AND USE THEREOF” (Institute of Nuclear Energy Research Atomic Energy Council, …, priority 2011, published 2014)
